According to PubChem BioAssay (NCI):
Where “and” joins values, the source holds several entries; their conditions need not be identical. Equal entries are not always repeated.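 Cells were grown in 96-well plates and exposed to each compound for 48 hours at five concentrations; endpoints were interpolated linearly between bracketing concentrations, or set to the highest concentration if not reached. GI50 marks 50% less growth. TGI: concentration producing complete growth inhibition.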

Tests used:
Assay in all cases: DTP human tumour cell line panel, 48 h
SF-539 CNS = tested on: SF-539 CNS
MDA-MB-231 breast = tested on: MDA-MB-231 breast
A549 NSCLC = tested on: A549 NSCLC
SK-MEL-5 melanoma = tested on: SK-MEL-5 melanoma
LOX IMVI melanoma = tested on: LOX IMVI melanoma
NCI-H226 lung = tested on: NCI-H226 lung
KM12 colon = tested on: KM12 colon
CCRF-CEM leukemia = tested on: CCRF-CEM leukemia
T-47D breast = tested on: T-47D breast
SF-268 CNS = tested on: SF-268 CNS

CC(C)N(C[C@H]1O[C@@H](n2cnc3c(N)ncnc32)[C@H](O)[C@@H]1O)C1CC(CCc2nc3ccc(C(C)(C)C)cc3[nH]2)C1 (some centres not stated)
GI50 (SF-539 CNS): > 100 µM
TGI (SF-539 CNS): > 100 µM
GI50 (MDA-MB-231 breast): 69.8 µM
TGI (MDA-MB-231 breast): > 100 µM
GI50 (A549 NSCLC): > 100 µM
TGI (A549 NSCLC): > 100 µM
GI50 (SK-MEL-5 melanoma): > 95.1 µM
TGI (SK-MEL-5 melanoma): > 100 µM
GI50 (LOX IMVI melanoma): > 71.5 µM
TGI (LOX IMVI melanoma): > 100 µM
GI50 (NCI-H226 lung): > 100 µM
TGI (NCI-H226 lung): > 100 µM
GI50 (KM12 colon): > 100 µM
TGI (KM12 colon): > 100 µM
GI50 (CCRF-CEM leukemia): > 49.3 µM
TGI (CCRF-CEM leukemia): > 84.4 µM
GI50 (T-47D breast): 68.5 µM
TGI (T-47D breast): > 100 µM
GI50 (SF-268 CNS): > 100 µM
TGI (SF-268 CNS): > 100 µM

O=C1c2ccccc2C(=O)c2sc(Nc3ccc(Cl)c(Cl)c3)nc21
TGI (SF-539 CNS): 8.18 µM
TGI (MDA-MB-231 breast): 6.82 µM
TGI (A549 NSCLC): 54.5 µM
TGI (SK-MEL-5 melanoma): 5.83 µM
TGI (LOX IMVI melanoma): 4.73 µM
TGI (NCI-H226 lung): 16.2 µM
TGI (KM12 colon): 18 µM
TGI (CCRF-CEM leukemia): 5.15 µM
TGI (T-47D breast): 22.7 µM
TGI (SF-268 CNS): 12.8 µM

CCCCCc1c(C)[nH]c(/C=c2\[nH]/c(=C3/C=c4ccccc4=N3)cc2OC)c1C
GI50 (SF-539 CNS): 0.0604 µM
TGI (SF-539 CNS): 0.659 µM
GI50 (MDA-MB-231 breast): 0.0266 µM
TGI (MDA-MB-231 breast): 0.232 µM
GI50 (A549 NSCLC): 0.0732 µM
TGI (A549 NSCLC): 0.636 µM
GI50 (SK-MEL-5 melanoma): 0.0324 µM
TGI (SK-MEL-5 melanoma): 0.11 µM
GI50 (LOX IMVI melanoma): 0.0248 µM
TGI (LOX IMVI melanoma): 0.0676 µM
GI50 (NCI-H226 lung): 0.0777 µM
TGI (NCI-H226 lung): 3.95 µM
GI50 (KM12 colon): 0.0511 µM
TGI (KM12 colon): > 100 µM
GI50 (CCRF-CEM leukemia): 0.0435 µM
TGI (CCRF-CEM leukemia): 6.03 µM
GI50 (T-47D breast): 0.0588 µM
TGI (T-47D breast): 0.698 µM
GI50 (SF-268 CNS): 0.077 µM
TGI (SF-268 CNS): 2.43 µM

Oc1[nH]c2ccc(Cl)cc2c1/C=c1/ccc2c(c1)N=C(c1cc(F)cc(F)c1)N=2
GI50 (SF-539 CNS): 8.7 µM
TGI (SF-539 CNS): > 100 µM
GI50 (MDA-MB-231 breast): 3.85 µM
TGI (MDA-MB-231 breast): > 100 µM
GI50 (SK-MEL-5 melanoma): 4.07 µM
TGI (SK-MEL-5 melanoma): > 100 µM
GI50 (LOX IMVI melanoma): 3.52 µM
TGI (LOX IMVI melanoma): > 100 µM
GI50 (NCI-H226 lung): > 100 µM
TGI (NCI-H226 lung): > 100 µM
GI50 (KM12 colon): 3.55 µM
TGI (KM12 colon): > 100 µM
GI50 (T-47D breast): 4.47 µM
TGI (T-47D breast): > 100 µM
GI50 (SF-268 CNS): 3.7 µM
TGI (SF-268 CNS): > 100 µM

CCOC(=O)C1(Cc2ccc3ccccc3c2)CCCCCN1 (configuration not stated)
TGI (A549 NSCLC): > 100 µM
TGI (LOX IMVI melanoma): 39.6 µM
TGI (SF-268 CNS): > 100 µM

O=c1[nH]c2c(O)cccc2c2cc3c(c(O)c12)OCO3
TGI (SF-539 CNS): 54.4 µM
TGI (A549 NSCLC): > 100 µM
TGI (SK-MEL-5 melanoma): > 100 µM
TGI (LOX IMVI melanoma): 38.9 µM
TGI (NCI-H226 lung): 55 µM
TGI (KM12 colon): 41.2 µM
TGI (CCRF-CEM leukemia): 64.3 µM
TGI (SF-268 CNS): 94.2 µM

O=C(NO)c1cnc(N2CCN(S(=O)(=O)c3ccc4ccccc4c3)CC2)nc1
GI50 (SF-539 CNS): 0.0762 µM
TGI (SF-539 CNS): 2.8 µM
GI50 (MDA-MB-231 breast): 0.199 µM
TGI (MDA-MB-231 breast): 5.28 µM
GI50 (A549 NSCLC): 0.0459 µM
TGI (A549 NSCLC): 0.37 µM
GI50 (SK-MEL-5 melanoma): 0.0396 µM
TGI (SK-MEL-5 melanoma): 0.15 µM
GI50 (NCI-H226 lung): 0.157 µM
TGI (NCI-H226 lung): 2.55 µM
GI50 (KM12 colon): 0.0759 µM
TGI (KM12 colon): 0.412 µM
GI50 (CCRF-CEM leukemia): 0.0379 µM
TGI (CCRF-CEM leukemia): > 64.7 µM
GI50 (T-47D breast): 0.0227 µM
TGI (T-47D breast): 1.79 µM
GI50 (SF-268 CNS): 0.169 µM
TGI (SF-268 CNS): 1.3 µM

O=[N+]([O-])c1cc(/C=N/NS(=O)(=O)c2ccc(F)cc2)c(O)c([N+](=O)[O-])c1
TGI (SF-539 CNS): 43.9 µM
TGI (A549 NSCLC): > 100 µM
TGI (SK-MEL-5 melanoma): 72 µM
TGI (LOX IMVI melanoma): > 100 µM
TGI (KM12 colon): 50 µM
TGI (CCRF-CEM leukemia): > 100 µM
TGI (SF-268 CNS): > 100 µM

O=C1c2cccc3cc([N+](=O)[O-])cc(c23)C(=O)N1O
TGI (MDA-MB-231 breast): > 100 µM
TGI (A549 NSCLC): > 100 µM
TGI (SK-MEL-5 melanoma): > 100 µM
TGI (LOX IMVI melanoma): > 100 µM
TGI (NCI-H226 lung): > 100 µM
TGI (KM12 colon): 61.7 µM
TGI (CCRF-CEM leukemia): > 100 µM
TGI (T-47D breast): > 100 µM
TGI (SF-268 CNS): > 100 µM

CCOC(=O)CNC(=O)C(CSC(=O)N(C)O)NC(=O)CCC(N)C(=O)O (configuration not stated)
GI50 (A549 NSCLC): > 2000 µM
TGI (A549 NSCLC): > 2000 µM
GI50 (SK-MEL-5 melanoma): > 2000 µM
TGI (SK-MEL-5 melanoma): > 2000 µM
GI50 (LOX IMVI melanoma): > 2000 µM
GI50 (NCI-H226 lung): > 2000 µM
TGI (NCI-H226 lung): > 2000 µM
GI50 (KM12 colon): > 2000 µM
TGI (KM12 colon): > 2000 µM
GI50 (CCRF-CEM leukemia): > 2000 µM
GI50 (SF-268 CNS): > 2000 µM
TGI (SF-268 CNS): > 2000 µM

CC1(C)CC2CC(C)(CN2c2ncnc3ccc(Br)cc23)C1 (configuration not stated)
GI50 (MDA-MB-231 breast): 2 µM
TGI (MDA-MB-231 breast): 12.4 µM
GI50 (A549 NSCLC): 2.82 µM
TGI (A549 NSCLC): 9.11 µM
GI50 (SK-MEL-5 melanoma): 8.88 µM
TGI (SK-MEL-5 melanoma): 21.6 µM
GI50 (LOX IMVI melanoma): 13.7 µM
TGI (LOX IMVI melanoma): 26.5 µM
GI50 (NCI-H226 lung): 3.32 µM
TGI (NCI-H226 lung): 16.2 µM
GI50 (KM12 colon): 11.1 µM
TGI (KM12 colon): 26.5 µM
GI50 (CCRF-CEM leukemia): 6.61 µM
TGI (CCRF-CEM leukemia): 39.8 µM
GI50 (T-47D breast): 13 µM
TGI (T-47D breast): 31.2 µM
GI50 (SF-268 CNS): 17.9 µM
TGI (SF-268 CNS): 37.9 µM

NC(=O)CCC(NC(=O)C(F)(F)F)C(=O)O (configuration not stated)
TGI (SF-539 CNS): > 100 µM
TGI (A549 NSCLC): > 100 µM
TGI (SK-MEL-5 melanoma): > 100 µM
TGI (LOX IMVI melanoma): > 100 µM
TGI (NCI-H226 lung): > 100 µM
TGI (KM12 colon): > 100 µM
TGI (CCRF-CEM leukemia): > 100 µM
TGI (SF-268 CNS): > 100 µM

C=C1CO[C@@H]2C[C@@H]1CC/C(C)=C/CC/C(C)=C/CC[C@@]2(C)O
GI50 (SF-539 CNS): 23.4 µM
TGI (SF-539 CNS): 43.6 µM
GI50 (MDA-MB-231 breast): 15.5 µM
TGI (MDA-MB-231 breast): 33.3 µM
GI50 (A549 NSCLC): 15.4 µM
TGI (A549 NSCLC): 33 µM
GI50 (SK-MEL-5 melanoma): 18.5 µM
TGI (SK-MEL-5 melanoma): 34.5 µM
GI50 (LOX IMVI melanoma): 2.25 µM
TGI (LOX IMVI melanoma): 21.4 µM
GI50 (KM12 colon): 17.4 µM
TGI (KM12 colon): 36 µM
GI50 (CCRF-CEM leukemia): 14.7 µM
TGI (CCRF-CEM leukemia): 33.9 µM
GI50 (T-47D breast): 18.3 µM
TGI (T-47D breast): 42.8 µM
GI50 (SF-268 CNS): 20.1 µM
TGI (SF-268 CNS): 50.5 µM

CC(C)[O-].CC(C)[O-].[O-]c1cccc2cccnc12.[O-]c1cccc2cccnc12.[Ti+4]
GI50 (SF-539 CNS): 97 µM
TGI (SF-539 CNS): > 100 µM
GI50 (A549 NSCLC): 41.7 µM
TGI (A549 NSCLC): > 100 µM
GI50 (SK-MEL-5 melanoma): 25.2 µM
GI50 (LOX IMVI melanoma): 74 µM
TGI (LOX IMVI melanoma): > 100 µM
GI50 (NCI-H226 lung): > 100 µM
TGI (NCI-H226 lung): > 100 µM
GI50 (KM12 colon): 21 µM
TGI (KM12 colon): 50 µM
GI50 (CCRF-CEM leukemia): 1.77 µM and 3.32 µM
TGI (CCRF-CEM leukemia): > 100 µM
GI50 (SF-268 CNS): 6.4 µM and 51.1 µM
TGI (SF-268 CNS): > 100 µM

OC(c1ccccc1)c1c(-c2ccccc2)oc(-c2ccccc2)c1C(O)c1ccccc1 (configuration not stated)
TGI (SF-539 CNS): 30.5 µM
TGI (A549 NSCLC): 20.5 µM
TGI (SK-MEL-5 melanoma): 23.6 µM
TGI (LOX IMVI melanoma): 25.2 µM
TGI (NCI-H226 lung): 21.9 µM
TGI (KM12 colon): 18.9 µM
TGI (CCRF-CEM leukemia): 17.1 µM
TGI (T-47D breast): 23.3 µM
TGI (SF-268 CNS): 25.5 µM

Cc1c(N2C(=O)/C(=C\c3ccc(N(C)C)cc3)N=C2c2ccccc2)c(=O)n(-c2ccccc2)n1C
GI50 (SF-539 CNS): > 100 µM
TGI (SF-539 CNS): > 100 µM
GI50 (MDA-MB-231 breast): > 82.9 µM
TGI (MDA-MB-231 breast): > 100 µM
GI50 (A549 NSCLC): 79.1 µM
TGI (A549 NSCLC): > 100 µM
GI50 (SK-MEL-5 melanoma): 36.3 µM
TGI (SK-MEL-5 melanoma): > 100 µM
GI50 (LOX IMVI melanoma): > 94.4 µM
TGI (LOX IMVI melanoma): > 100 µM
GI50 (NCI-H226 lung): 72.2 µM
TGI (NCI-H226 lung): > 100 µM
GI50 (KM12 colon): 77.8 µM
TGI (KM12 colon): > 100 µM
GI50 (T-47D breast): 19.3 µM
TGI (T-47D breast): > 87.2 µM
GI50 (SF-268 CNS): > 76.9 µM
TGI (SF-268 CNS): > 100 µM

C[N+]1=c2c3cccc4cccc(c(=O)n2CCC1)c43
TGI (SF-539 CNS): > 100 µM
TGI (A549 NSCLC): 96.8 µM
TGI (SK-MEL-5 melanoma): 32.5 µM
TGI (LOX IMVI melanoma): 29.4 µM
TGI (NCI-H226 lung): 36.5 µM
TGI (KM12 colon): > 100 µM
TGI (CCRF-CEM leukemia): 28.9 µM
TGI (SF-268 CNS): 60.2 µM
